Article doi:10.1101/2023.12.04.569845, “Identification of 4-(6-((2-methoxyphenyl)amino)pyrazin-2-yl)benzoic acids as CSNK2A inhibitors with antiviral activity and improved selectivity over PIM3” (bioRxiv, 2023)
Like-named read-outs stand apart in the source and are kept apart here.

Experiments:
Test in all cases: biochemical
Parameters in all cases: Thermal shift (DSF, SYPRO Orange) Tm shift of recombinant kinase domains at 10 uM compound
DRAK2 = biological target: T1, DRAK2 (Homo sapiens, UniProt O94768)
T1 construct: gene STK17B
T1 sequence (O94768 1-372): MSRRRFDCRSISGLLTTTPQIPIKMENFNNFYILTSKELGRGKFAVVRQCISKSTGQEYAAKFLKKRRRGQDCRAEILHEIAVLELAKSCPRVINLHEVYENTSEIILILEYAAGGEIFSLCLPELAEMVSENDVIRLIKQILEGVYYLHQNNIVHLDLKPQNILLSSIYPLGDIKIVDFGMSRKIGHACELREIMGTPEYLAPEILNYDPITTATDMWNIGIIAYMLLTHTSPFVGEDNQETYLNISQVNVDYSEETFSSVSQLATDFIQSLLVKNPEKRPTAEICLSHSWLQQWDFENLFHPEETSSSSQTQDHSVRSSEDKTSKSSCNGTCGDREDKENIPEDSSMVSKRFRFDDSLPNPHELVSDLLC
Description: (§1) S23 Thermal stability kinase selectivity. The assay was performed as previously described. 9,10 Briefly, recombinant protein kinase domains at a concentration of 2 μM were mixed with 10 μM compound in a buffer containing 20 mM HEPES, pH 7.5, and 500 mM NaCl. SYPRO Orange (5000×, Invitrogen) was added as a fluorescence probe (1 µl per mL). Subsequently, temperature-dependent protein unfolding profiles were measured using the QuantStudio™ 5 realtime PCR machine (Thermo Fisher). […] The temperature was raised with a step rate of 3°C per minute. Data points were analysed with the internal software (Thermal Shift SoftwareTM Version 1.4, Thermo Fisher) using the Boltzmann equation to determine the inflection point of the transition curve.

Haspin = biological target: T2, Haspin (Homo sapiens, UniProt Q8TF76)
T2 sequence (Q8TF76 1-798): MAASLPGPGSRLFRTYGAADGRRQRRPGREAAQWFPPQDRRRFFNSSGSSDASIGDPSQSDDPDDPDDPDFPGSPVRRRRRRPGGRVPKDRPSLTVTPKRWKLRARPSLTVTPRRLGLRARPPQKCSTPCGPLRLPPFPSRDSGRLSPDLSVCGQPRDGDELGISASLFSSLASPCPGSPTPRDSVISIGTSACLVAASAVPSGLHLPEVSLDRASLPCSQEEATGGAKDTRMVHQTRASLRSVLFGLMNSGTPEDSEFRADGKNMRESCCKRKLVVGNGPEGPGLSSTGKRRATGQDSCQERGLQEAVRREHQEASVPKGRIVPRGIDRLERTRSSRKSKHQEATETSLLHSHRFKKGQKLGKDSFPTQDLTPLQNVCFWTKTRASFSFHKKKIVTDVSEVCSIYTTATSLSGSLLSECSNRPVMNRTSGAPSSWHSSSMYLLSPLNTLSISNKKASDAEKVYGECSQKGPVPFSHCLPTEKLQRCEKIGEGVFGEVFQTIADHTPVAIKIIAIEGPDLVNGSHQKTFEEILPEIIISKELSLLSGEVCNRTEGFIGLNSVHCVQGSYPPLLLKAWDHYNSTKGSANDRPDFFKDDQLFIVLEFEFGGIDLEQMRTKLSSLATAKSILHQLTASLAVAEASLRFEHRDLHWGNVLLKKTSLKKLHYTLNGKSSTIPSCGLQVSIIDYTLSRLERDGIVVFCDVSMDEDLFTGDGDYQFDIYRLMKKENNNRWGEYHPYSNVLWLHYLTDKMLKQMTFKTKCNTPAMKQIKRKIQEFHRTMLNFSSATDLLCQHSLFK
Description: as §1

MSSK1 = biological target: T3, MSSK1 (Homo sapiens, UniProt Q9UPE1)
T3 construct: gene SRPK3
T3 sequence (Q9UPE1 whole entry): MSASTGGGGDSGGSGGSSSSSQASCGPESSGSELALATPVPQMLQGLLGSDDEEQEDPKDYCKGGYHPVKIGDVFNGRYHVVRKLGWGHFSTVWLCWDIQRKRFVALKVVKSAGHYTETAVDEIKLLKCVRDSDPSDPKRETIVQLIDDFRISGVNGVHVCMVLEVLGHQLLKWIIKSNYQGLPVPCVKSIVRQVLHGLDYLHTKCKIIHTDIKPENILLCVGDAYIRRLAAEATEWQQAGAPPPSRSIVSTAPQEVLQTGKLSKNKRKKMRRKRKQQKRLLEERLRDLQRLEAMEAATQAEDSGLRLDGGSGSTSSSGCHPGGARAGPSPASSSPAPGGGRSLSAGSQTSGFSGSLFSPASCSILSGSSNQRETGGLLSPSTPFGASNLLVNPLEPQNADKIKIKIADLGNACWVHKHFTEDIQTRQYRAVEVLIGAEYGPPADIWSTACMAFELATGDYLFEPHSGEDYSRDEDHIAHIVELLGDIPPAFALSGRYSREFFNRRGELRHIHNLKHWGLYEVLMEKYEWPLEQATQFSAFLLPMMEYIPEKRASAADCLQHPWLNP
Description: as §1

MST3 = biological target: T4, MST3 (Homo sapiens, UniProt Q9Y6E0)
T4 construct: gene STK24
T4 sequence (Q9Y6E0 whole entry): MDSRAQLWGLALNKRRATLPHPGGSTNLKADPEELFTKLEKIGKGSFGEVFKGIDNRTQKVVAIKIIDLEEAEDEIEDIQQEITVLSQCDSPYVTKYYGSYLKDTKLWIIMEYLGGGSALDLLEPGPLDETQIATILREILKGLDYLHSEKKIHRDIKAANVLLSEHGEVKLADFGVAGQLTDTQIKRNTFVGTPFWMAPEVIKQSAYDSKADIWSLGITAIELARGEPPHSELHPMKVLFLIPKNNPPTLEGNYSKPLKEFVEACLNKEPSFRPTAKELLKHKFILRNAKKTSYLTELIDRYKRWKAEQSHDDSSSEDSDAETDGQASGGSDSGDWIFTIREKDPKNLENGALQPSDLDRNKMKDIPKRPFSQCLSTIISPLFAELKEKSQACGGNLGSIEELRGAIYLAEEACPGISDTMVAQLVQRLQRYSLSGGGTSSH
Description: as §1

NEK1 = biological target: T5, NEK1 (Homo sapiens, UniProt Q96PY6)
T5 sequence (Q96PY6 1-1258): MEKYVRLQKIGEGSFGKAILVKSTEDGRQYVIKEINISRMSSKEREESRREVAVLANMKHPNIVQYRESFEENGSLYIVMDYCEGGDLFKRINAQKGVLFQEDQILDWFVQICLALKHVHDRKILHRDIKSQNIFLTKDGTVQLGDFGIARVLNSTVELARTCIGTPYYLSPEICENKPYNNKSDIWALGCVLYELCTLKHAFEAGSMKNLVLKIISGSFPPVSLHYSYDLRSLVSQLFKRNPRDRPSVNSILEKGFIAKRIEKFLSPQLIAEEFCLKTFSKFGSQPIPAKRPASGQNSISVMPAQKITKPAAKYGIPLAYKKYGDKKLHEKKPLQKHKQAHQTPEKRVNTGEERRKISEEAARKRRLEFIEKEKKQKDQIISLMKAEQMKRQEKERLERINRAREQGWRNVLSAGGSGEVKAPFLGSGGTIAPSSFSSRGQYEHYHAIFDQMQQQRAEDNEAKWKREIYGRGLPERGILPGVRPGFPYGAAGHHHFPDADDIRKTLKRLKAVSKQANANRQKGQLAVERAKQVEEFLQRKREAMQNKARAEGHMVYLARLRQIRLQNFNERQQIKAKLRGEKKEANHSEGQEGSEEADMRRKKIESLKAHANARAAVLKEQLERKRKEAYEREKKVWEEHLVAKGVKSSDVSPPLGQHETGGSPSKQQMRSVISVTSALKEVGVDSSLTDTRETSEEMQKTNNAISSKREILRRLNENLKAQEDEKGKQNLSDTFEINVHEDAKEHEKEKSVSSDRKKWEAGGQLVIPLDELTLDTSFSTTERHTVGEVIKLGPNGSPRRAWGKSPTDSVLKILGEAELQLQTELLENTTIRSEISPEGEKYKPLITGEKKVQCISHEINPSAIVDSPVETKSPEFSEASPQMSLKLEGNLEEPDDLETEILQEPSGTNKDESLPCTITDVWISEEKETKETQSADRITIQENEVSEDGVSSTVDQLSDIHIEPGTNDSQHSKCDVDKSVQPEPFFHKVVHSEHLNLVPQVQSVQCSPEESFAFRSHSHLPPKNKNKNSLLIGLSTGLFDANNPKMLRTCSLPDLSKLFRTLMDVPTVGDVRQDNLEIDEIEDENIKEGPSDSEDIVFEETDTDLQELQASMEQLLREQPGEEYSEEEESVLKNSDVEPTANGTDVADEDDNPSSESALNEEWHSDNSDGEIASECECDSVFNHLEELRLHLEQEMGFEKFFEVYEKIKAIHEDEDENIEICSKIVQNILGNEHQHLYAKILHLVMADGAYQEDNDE
Description: as §1

PAK4 = PAK4 (Homo sapiens, UniProt O96013)
Chain of PAK4 (O96013 whole entry): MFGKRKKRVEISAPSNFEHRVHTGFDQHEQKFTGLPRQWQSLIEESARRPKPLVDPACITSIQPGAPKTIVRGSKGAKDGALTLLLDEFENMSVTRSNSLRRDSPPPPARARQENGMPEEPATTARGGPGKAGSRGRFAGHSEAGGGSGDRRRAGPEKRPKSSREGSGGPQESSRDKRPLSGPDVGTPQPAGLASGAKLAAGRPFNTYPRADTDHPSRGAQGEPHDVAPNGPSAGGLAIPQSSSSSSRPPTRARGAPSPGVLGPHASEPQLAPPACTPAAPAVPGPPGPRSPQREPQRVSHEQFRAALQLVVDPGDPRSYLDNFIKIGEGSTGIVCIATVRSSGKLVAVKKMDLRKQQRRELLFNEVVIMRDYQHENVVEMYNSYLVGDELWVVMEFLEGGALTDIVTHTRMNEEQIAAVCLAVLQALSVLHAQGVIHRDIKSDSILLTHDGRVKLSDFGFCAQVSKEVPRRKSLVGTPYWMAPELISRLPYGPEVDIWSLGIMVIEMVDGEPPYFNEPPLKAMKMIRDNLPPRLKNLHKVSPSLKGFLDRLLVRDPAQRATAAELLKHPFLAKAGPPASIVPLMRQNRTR
Description: as §1

COc1ccc(OC(C)C)cc1Nc1cncc(-c2ccc(C(=O)O)cc2)n1 [7c]
ΔTm at 10 µM (DRAK2; read-out: 7c): 0 °C
ΔTm at 10 µM (Haspin; read-out: 7c): 5 °C
ΔTm at 10 µM (MSSK1; read-out: 7c): 1 °C
ΔTm at 10 µM (MST3; read-out: 7c): -3 °C
ΔTm at 10 µM (NEK1; read-out: 7c): 0 °C
ΔTm at 10 µM (PAK4; read-out: 7c): 1 °C

CC(C)Nc1ccc2cnn(-c3cncc(-c4ccc(C(=O)O)cc4)n3)c2c1 [compound 2, 2]
ΔTm at 10 µM (DRAK2; read-out: 2): 3 °C
ΔTm at 10 µM (Haspin; read-out: 2): 3 °C
ΔTm at 10 µM (MSSK1; read-out: 2): 3 °C
ΔTm at 10 µM (MST3; read-out: 2): 1 °C
ΔTm at 10 µM (NEK1; read-out: 2): 1 °C
ΔTm at 10 µM (PAK4; read-out: 2): 3 °C

CC(C)Oc1ccc2ccn(-c3cncc(-c4ccc(C(=O)O)cc4)n3)c2c1 [6c]
ΔTm at 10 µM (DRAK2; read-out: 6c): 2 °C
ΔTm at 10 µM (Haspin; read-out: 6c): 0 °C
ΔTm at 10 µM (MSSK1; read-out: 6c): 1 °C
ΔTm at 10 µM (MST3; read-out: 6c): -3 °C
ΔTm at 10 µM (NEK1; read-out: 6c): 0 °C
ΔTm at 10 µM (PAK4; read-out: 6c): 3 °C
